Measurements: patent US20230338307A1, “PROPHYLACTIC AGENT, AMELIORATING AGENT, AND THERAPEUTIC AGENT FOR DRY EYE” (TSUBOTA LABORATORY, INC., priority 2020, published 2023)

What was measured:
[1] = test system: dry eye model; experiment: Fluorescein staining score (corneal epithelial damage), dry eye model by erlotinib instillation (Example 1); type: in vivo; conditions: 0.003% (w/v) apocynin eye drop twice daily, two weeks; erlotinib-instilled mice; FIG. 3
Text: After acclimating male C57BL6 mice (7 weeks old) to the experimental environment, those with almost uniform body weight values and no eye abnormalities were divided into the following 3 groups (n=5). • 7 weeks old/normal (non-dry eye group) • 7 weeks old/dry eye model+control (solvent eye drop) group • 7 weeks old/dry eye model+apocynin eye drop group The dry eye model was created by daily instillation of an EGF receptor inhibitor (erlotinib) based on the method of Yang et al. In this model, administration of erlotinib causes dry eye symptoms such as shortened BUT, decreased tear volume, and corneal damage after 1 week of administration (Non-patent Document 3). After 20 μM of erlotinib was instilled for 2 weeks, the control group received PBS alone, and the test group received 3 μL of a suspension of 0.003% (w/v) apocynin in PBS twice daily. […] Under anesthesia, the tip of a Schirmer test paper cut to 1 mm width was inserted into the conjunctival sac of the lower eyelid of the mouse, the test paper was removed after 5 minutes, the length of the wetted part was read in units of 0.5 mm, and the value was used as the tear volume (FIG. 2). In the dry eye model prepared in Example 1, after BUT measurement, fluorescein-stained images were photographed under a blue filter using a slit lamp (Kowa Co., Ltd., SL-17), and corneal epithelial damage was analyzed (FIG. 3). […]

[2] = test system: meibomian glands; experiment: Meibomian gland silhouette and area, dry eye model by systemic erlotinib (Example 3); type: in vivo, mice; conditions: 0.003% (w/v) apocynin eye drop, 2 weeks after start of instillation
Description: After acclimating male C57BL6 mice (7 weeks old) to the experimental environment, those with almost uniform body weight values and no eye abnormalities were divided into the following 3 groups (n=4). • 7 weeks old/normal (non-dry eye group) • 7 weeks old/dry eye model+control (solvent eye drop) group • 7 weeks old/dry eye model+apocynin eye drop group The dry eye model was prepared by dissolving erlotinib at a concentration of 5 mg/ml in 0.5% methylcellulose solution and administering it by intraperitoneal injection at a concentration of 50 mg/kg/day daily from the start of the study. The solvent 0.5% methylcellulose solution was similarly administered to the normal non-administration group. After one week of administration of erlotinib, the control group received PBS alone, and the test group received a solution of 0.003% (w/v) apocynin suspended in PBS twice a day at both eyes with 3 μL each. One week after the start of instillation, 1 μL of 0.1% sodium fluorescein solution was instilled into each of both eyes under isoflurane anesthesia, and the BUT test was performed under a blue filter using a slit lamp (Kowa Co., Ltd., SL-17) (FIG. 5). […] In addition, the image analysis software ImageJ was used to quantify the area of the meibomian gland silhouette image of the upper eyelid image (FIG. 7).

[3] = test system: dry eye model; experiment: Schirmer test (tear volume), benzalkonium chloride dry eye model, Comparative Study 1 (Example 4); type: in vivo, mice; conditions: 0.1% (w/v) apocynin in 0.5% methylcellulose twice a day, 3 days after start; versus 0.5% (w/v) hyaluronic acid group; FIG. 8
Description: After acclimating male C57BL6 mice (7 weeks old) to the experimental environment, those with almost uniform weight values and no eye abnormalities were divided into the following groups (n=4). • 7 weeks old/normal (non-dry eye group) • 7 weeks old/dry eye model+control (solvent eye drop) group • 7 weeks old/dry eye model+0.1% (w/v) apocynin eye drop group • 7 weeks old/dry eye model+0.5% (w/v) hyaluronic acid eye drop group A dry eye model was prepared by instilling the benzalkonium chloride solution at 3 μL each eye, twice a day for 8 days. After that, the control group received the 0.5% methylcellulose solution alone, and the test group received 0.1% (w/v) apocynin or 0.5% (w/v) hyaluronic acid suspended in the 0.5% methylcellulose solution twice a day for 15 days at 3 μL for each of both eyes. Schirmer's test was performed 1, 3, 6, and 8 days after the start of instillation of the comparative test drug, and tear volume was evaluated.

[4] = test system: dry eye model; experiment: Fluorescein staining score, 0.2% benzalkonium chloride dry eye model, Comparative Study 2 (Example 5); type: in vivo, mice
Text: After acclimating male C57BL6 mice (7 weeks old) to the experimental environment, those with almost uniform weight values and no eye abnormalities were divided into the following groups (n=3 to 4). • 7 weeks old/normal (non-dry eye group) • 7 weeks old/dry eye model+control (solvent eye drop) group • 7 weeks old/dry eye model+0.003% (w/v) apocynin eye drop group • 7 weeks old/dry eye model+0.03% (w/v) apocynin eye drop group • 7 weeks old/dry eye model+3% diquafosol sodium eye drop group • 7 weeks old/dry eye model+0.5% (w/v) hyaluronic acid eye drop group A dry eye model was created by instilling 3 μL of the 0.2% benzalkonium chloride solution into each of both eyes twice a day for 8 days. Then, the control group received PBS alone, and the test group received 0.003% (w/v), 0.03% (w/v) apocynin and 0.5% (w/v) hyaluronic acid in PBS. The 3% diquafosol sodium eye drop was instilled into each of both eyes at 3 μL, twice a day for 9 days. In Example 5, 1, 2, 5, and 9 days after the start of instillation of the comparative test drug, 1 μL of 0.1% sodium fluorescein solution was instilled into each of both eyes. Fluorescein-stained images were observed under a blue filter using a slit lamp (Kowa Co., Ltd., SL-17), and the degree of corneal epithelial damage was scored.

In the case of COc1cc(C(C)=O)ccc1O [apocynin, 4-hydroxy-3-methoxyacetophenone], the “corneal epithelial damage (fluorescein staining score)” value [1] is reported as “significant improvement was observed”, the “missing parts of meibomian glands (silhouette image of upper eyelid)” value ([2]; FIG. 7A) is reported as “reduced the missing parts” and the “meibomian gland silhouette area (atrophy of the meibomian glands)” value ([2]; ImageJ, FIG. 7B) is reported as “significantly inhibits atrophy of the meibomian glands”. The “tear volume (Schirmer test)” value [3] was “marked improvement in the tear volume compared to the hyaluronic acid eye drop group”, the “fluorescein staining score (corneal epithelial damage)” value ([4]; 0.003% apocynin eye drop, 9 days after start, compared to control, hyaluronic acid and diquafosol sodium groups, FIG. 11B) was “significantly improved” and the “fluorescein staining score (corneal epithelial damage)” value ([4]; 0.03% apocynin eye drop, 9 days after start, compared to control, hyaluronic acid and diquafosol sodium groups, FIG. 11B) was “significantly improved”. The “fluorescein staining score (corneal epithelial damage)” value ([4]; two days after start, compared with control, 0.03% apocynin, 0.5% (w/v) hyaluronic acid or 3% diquafosol sodium twice a day, FIG. 11A) was “decreased significantly”.
